Measurements from patent publication US12655125B2 (SIRONAX LTD., priority 2020, dated 2026).

test system: HT-29 cells; assay: HT29 Cells 0FBS Assay In Vitro (TNF-α/SMAC mimetic/zVAD-FMK induced necroptosis, CellTiter-Glo cell viability); type: cell-based; conditions: Homo sapiens, HT-29, 20 h, read-out: Cell activity (EC50) of Compounds 117-281
Outline: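 Viability was measured by ATP luminescence (CellTiter-Glo) after 20 h at 37° C of compound exposure in 10-point, 1:3 dilutions. Necroptosis in FBS-free HT-29 cultures was driven by a TNF-α (10 ng/ml), SMAC mimetic (6 μM) and zVAD-FMK (10 μM) cocktail. EC50 values are geometric means from duplicate curves.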

Row | SMILES | EC50 [nM]
1 | Cc1nn(CCO)c(C)c1-c1cc(OC2CN(C(=O)N3N=CC[C@H]3c3cc(F)cc(F)c3)C2)c(F)cn1 [compound 117, (S)-(5-(3,5-difluorophenyl)-4,5-dihydro-1H-pyrazol-1-yl)(3-((5-fluoro-2-(1-(2-hydroxyethyl)-3,5-dimethyl-1H-pyrazol-4-yl)pyridin-4-yl)oxy)azetidin-1-yl)methanone] | 0.1 to 100

same assay, conditions: Homo sapiens; HT-29 cells, FBS free medium, TNF-α (10 ng/ml), SMAC mimetic (6 uM), zVAD-FMK (10 μM), 20 hours; geometric mean EC50; read-out: Cell activity (EC50) of Compounds 1-116

Row | SMILES | EC50 [nM]
2 | Cc1nn(CC(=O)N(C)C)c(C)c1-c1ncc(F)c(OC2CN(C(=O)N3N=CC[C@H]3c3cc(F)cc(F)c3)C2)n1 [compound 100, (S)-2-(4-(4-((1-(5-(3,5-difluorophenyl)-4,5-dihydro-1H-pyrazole-1-carbonyl)azetidin-3-yl)oxy)-5-fluoropyrimidin-2-yl)-3,5-dimethyl-1H-pyrazol-1-yl)-N,N-dimethylacetamide] | 0.1 to 100
3 | Cc1c(N)nn(C)c1-c1cc(OC2CN(C(=O)N3N=CC[C@H]3c3cc(F)cc(F)c3)C2)c(F)cn1 [compound 101, (S)-(3-((2-(3-amino-1,4-dimethyl-11H-pyrazol-5-yl)-5-fluoropyridin-4-yl)oxy)azetidin-1-yl)(5-(3,5-difluorophenyl)-4,5-dihydro-1H-pyrazol-1-yl)methanone] | 0.1 to 100
4 | Cc1cccn1-c1ncc(F)c(OC2CN(C(=O)N3N=CC[C@H]3c3cc(F)cc(F)c3)C2)n1 [compound 102, (S)-(5-(3,5-difluorophenyl)-4,5-dihydro-1H-pyrazol-1-yl)(3-((5-fluoro-2-(2-methyl-1H-pyrrol-1-yl)pyrimidin-4-yl)oxy)azetidin-1-yl)methanone] | 0.1 to 100
5 | Cc1nc(C)n(-c2ncc(F)c(OC3CN(C(=O)N4N=CC[C@H]4c4cc(F)cc(F)c4)C3)n2)n1 [compound 103, (S)-(5-(3,5-difluorophenyl)-4,5-dihydro-1H-pyrazol-1-yl)(3-((2-(3,5-dimethyl-1H-1,2,4-triazol-1-yl)-5-fluoropyrimidin-4-yl)oxy)azetidin-1-yl)methanone] | 0.1 to 100
6 | Cc1nc(C)n(-c2cc(OC3CN(C(=O)N4N=CC[C@H]4c4cc(F)cc(F)c4)C3)c(F)cn2)n1 [compound 104, (S)-(5-(3,5-difluorophenyl)-4,5-dihydro-1H-pyrazol-1-yl)(3-((2-(3,5-dimethyl-1H-1,2,4-triazol-1-yl)-5-fluoropyridin-4-yl)oxy)azetidin-1-yl)methanone] | 0.1 to 100
7 | Cc1nccn1-c1ncc(F)c(OC2CN(C(=O)N3N=CC[C@H]3c3cc(F)cc(F)c3)C2)n1 [compound 105, (S)-(5-(3,5-difluorophenyl)-4,5-dihydro-1H-pyrazol-1-yl)(3-((5-fluoro-2-(2-methyl-1H-imidazol-1-yl)pyrimidin-4-yl)oxy)azetidin-1-yl)methanone] | 0.1 to 100
8 | N#Cc1cccn1-c1ncc(F)c(OC2CN(C(=O)N3N=CC[C@H]3c3cc(F)cc(F)c3)C2)n1 [compound 106, (S)-1-(4-((1-(5-(3,5-difluorophenyl)-4,5-dihydro-1H-pyrazole-1-carbonyl)azetidin-3-yl)oxy)-5-fluoropyrimidin-2-yl)-1H-pyrrole-2-carbonitrile] | 0.1 to 100
9 | NC(=O)c1cccn1-c1ncc(F)c(OC2CN(C(=O)N3N=CC[C@H]3c3cc(F)cc(F)c3)C2)n1 [compound 107, (S)-1-(4-((1-(5-(3,5-difluorophenyl)-4,5-dihydro-1H-pyrazole-1-carbonyl)azetidin-3-yl)oxy)-5-fluoropyrimidin-2-yl)-1H-pyrrole-2-carboxamide] | 0.1 to 100
10 | Cc1nn(-c2cc(OC3CN(C(=O)N4N=CC[C@H]4c4cc(F)cc(F)c4)C3)c(F)cn2)c(C)c1[N+](=O)[O-] [compound 108, (S)-(5-(3,5-difluorophenyl)-4,5-dihydro-1H-pyrazol-1-yl)(3-((2-(3,5-dimethyl-4-nitro-1H-pyrazol-1-yl)-5-fluoropyridin-4-yl)oxy)azetidin-1-yl)methanone] | 0.1 to 100
11 | Cc1nn(-c2cc(OC3CN(C(=O)N4N=CC[C@H]4c4cc(F)cc(F)c4)C3)c(F)cn2)c(C)c1N [compound 109, (S)-(3-((2-(4-amino-3,5-dimethyl-11H-pyrazol-1-yl)-5-fluoropyridin-4-yl)oxy)azetidin-1-yl)(5-(3,5-difluorophenyl)-4,5-dihydro-1H-pyrazol-1-yl)methanone] | 0.1 to 100
12 | Cc1nn(-c2cc(OC3CN(C(=O)N4N=CC[C@H]4c4cc(F)cc(F)c4)C3)c(F)cn2)c(C)c1C(N)=O [compound 110, (S)-1-(4-((1-(5-(3,5-difluorophenyl)-4,5-dihydro-1H-pyrazole-1-carbonyl)azetidin-3-yl)oxy)-5-fluoropyridin-2-yl)-3,5-dimethyl-1H-pyrazole-4-carboxamide] | 0.1 to 100
13 | Cn1ncc(C#N)c1-c1ccc(F)c(OC2CN(C(=O)N3N=CCC3c3cc(F)cc(F)c3)C2)n1 (stereo not drawn) [compound 111, 5-(6-((1-(5-(3,5-difluorophenyl)-4,5-dihydro-1H-pyrazole-1-carbonyl)azetidin-3-yl)oxy)-5-fluoropyridin-2-yl)-1-methyl-11H-pyrazole-4-carbonitrile] | 0.1 to 100
14 | Cc1cnn(C)c1-c1ccc(F)c(OC2CN(C(=O)N3N=CC[C@H]3c3cc(F)cc(F)c3)C2)c1 [compound 112, (S)-(5-(3,5-difluorophenyl)-4,5-dihydro-1H-pyrazol-1-yl)(3-(5-(1,4-dimethyl-1H-pyrazol-5-yl)-2-fluorophenoxy)azetidin-1-yl)methanone] | 0.1 to 100
15 | Cc1n[nH]c(C)c1-c1ccc(F)c(OC2CN(C(=O)N3N=CC[C@H]3c3cc(F)cc(F)c3)C2)c1 [compound 113, (S)-(5-(3,5-difluorophenyl)-4,5-dihydro-1H-pyrazol-1-yl)(3-(5-(3,5-dimethyl-1H-pyrazol-4-yl)-2-fluorophenoxy)azetidin-1-yl)methanone] | 0.1 to 100
16 | Cn1ncc(C#N)c1-c1ccc(F)c(OC2CN(C(=O)N3N=CCC3c3cc(F)cc(F)c3)C2)c1 (stereo not drawn) [compound 114] | 0.1 to 100
17 | Cn1ncc(C(N)=O)c1-c1ccc(F)c(OC2CN(C(=O)N3N=CCC3c3cc(F)cc(F)c3)C2)c1 (stereo not drawn) [compound 115] | 0.1 to 100
18 | Cc1nc(C)n(-c2ccc(F)c(OC3CN(C(=O)N4N=CCC4c4cc(F)cc(F)c4)C3)c2)n1 (stereo not drawn) [compound 116] | 0.1 to 100

same assay, conditions: Homo sapiens; HT-29 cells, FBS free medium, TNF-α (10 ng/ml), SMAC mimetic (6 uM), zVAD-FMK (10 μM), 20 hours; geometric mean EC50; read-out: Cell activity (EC50) of Compounds 117-281

Row | SMILES | EC50 [nM]
19 | COC(=O)Cn1nc(C)c(-c2cc(OC3CN(C(=O)N4N=CC[C@H]4c4cc(F)cc(F)c4)C3)c(F)cn2)c1C [compound 118, methyl (S)-2-(4-(4-((1-(5-(3,5-difluorophenyl)-4,5-dihydro-1H-pyrazole-1-carbonyl)azetidin-3-yl)oxy)-5-fluoropyridin-2-yl)-3,5-dimethyl-1H-pyrazol-1-yl)acetate] | 1000 to 10000
20 | CN(C)CCNc1cnn(C)c1-c1cc(OC2CN(C(=O)N3N=CC[C@H]3c3cc(F)cc(F)c3)C2)c(F)cn1 [compound 119, (S)-(5-(3,5-difluorophenyl)-4,5-dihydro-1H-pyrazol-1-yl)(3-((2-(4-((2-(dimethylamino)ethyl)amino)-1-methyl-1H-pyrazol-5-yl)-5-fluoropyridin-4-yl)oxy)azetidin-1-yl)methanone] | 100 to 1000
21 | Cn1ncc(NCCN2CCOCC2)c1-c1cc(OC2CN(C(=O)N3N=CC[C@H]3c3cc(F)cc(F)c3)C2)c(F)cn1 [compound 120, (S)-(5-(3,5-difluorophenyl)-4,5-dihydro-1H-pyrazol-1-yl)(3-((5-fluoro-2-(1-methyl-4-((2-morpholinoethyl)amino)-1H-pyrazol-5-yl)pyridin-4-yl)oxy)azetidin-1-yl)methanone] | 0.1 to 100
22 | COCC(=O)Nc1cnn(C)c1-c1cc(OC2CN(C(=O)N3N=CC[C@H]3c3cc(F)cc(F)c3)C2)c(F)cn1 [compound 121, (S)—N-(5-(4-((1-(5-(3,5-difluorophenyl)-4,5-dihydro-1H-pyrazole-1-carbonyl)azetidin-3-yl)oxy)-5-fluoropyridin-2-yl)-1-methyl-1H-pyrazol-4-yl)-2-methoxyacetamide] | 0.1 to 100
23 | CN(C)CC(=O)Nc1cnn(C)c1-c1cc(OC2CN(C(=O)N3N=CC[C@H]3c3cc(F)cc(F)c3)C2)c(F)cn1 [compound 122, (S)—N-(5-(4-((1-(5-(3,5-difluorophenyl)-4,5-dihydro-1H-pyrazole-1-carbonyl)azetidin-3-yl)oxy)-5-fluoropyridin-2-yl)-1-methyl-1H-pyrazol-4-yl)-2-(dimethylamino)acetamide] | 0.1 to 100
24 | CN1CCN(CC(=O)Nc2cnn(C)c2-c2cc(OC3CN(C(=O)N4N=CC[C@H]4c4cc(F)cc(F)c4)C3)c(F)cn2)CC1 [compound 123, (S)—N-(5-(4-((1-(5-(3,5-difluorophenyl)-4,5-dihydro-1H-pyrazole-1-carbonyl)azetidin-3-yl)oxy)-5-fluoropyridin-2-yl)-1-methyl-1H-pyrazol-4-yl)-2-(4-methylpiperazin-1-yl)acetamide] | 100 to 1000
25 | CCc1nn(-c2cc(OC3CN(C(=O)N4N=CC[C@H]4c4cc(F)cc(F)c4)C3)c(F)cn2)c(C)c1C#N [compound 124, (S)-1-(4-((1-(5-(3,5-difluorophenyl)-4,5-dihydro-1H-pyrazole-1-carbonyl)azetidin-3-yl)oxy)-5-fluoropyridin-2-yl)-3-ethyl-5-methyl-1H-pyrazole-4-carbonitrile] | 0.1 to 100
26 | CNc1nn(C)c(-c2cc(OC3CN(C(=O)N4N=CC[C@H]4c4cc(F)cc(F)c4)C3)c(F)cn2)c1C [compound 125, (S)-(5-(3,5-difluorophenyl)-4,5-dihydro-1H-pyrazol-1-yl)(3-((2-(1,4-dimethyl-3-(methylamino)-1H-pyrazol-5-yl)-5-fluoropyridin-4-yl)oxy)azetidin-1-yl)methanone] | 0.1 to 100
27 | Cc1cn[nH]c1-c1cc(OC2CN(C(=O)N3N=CC[C@H]3c3cc(F)cc(F)c3)C2)c(F)cn1 [compound 126, (S)-(5-(3,5-difluorophenyl)-4,5-dihydro-1H-pyrazol-1-yl)(3-((5-fluoro-2-(4-methyl-1H-pyrazol-5-yl)pyridin-4-yl)oxy)azetidin-1-yl)methanone] | 0.1 to 100
